This test addresses Ubiquitin carboxyl-terminal hydrolase 28 (Homo sapiens) (UniProt Q96RU2). Nature of the test: Ubiquitin-specific peptidase 28 DUB inhibitors, biochemical concentration-dependence assay, validation of primary screening hits (AID 1645866). Conditions: purified USP28, ubiquitin-rhodamine fluorescence, 30 min.

Calls of active or inactive are those of the source.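 How the source made its calls: active means in confirmatory dose-response testing, peak deubiquitinase inhibition of 30% or more; inactive means the rest.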 Where only a bound is given, the exact number is not on record here.

Chain of Ubiquitin carboxyl-terminal hydrolase 28 (Homo sapiens) (Q96RU2 whole entry, looked up): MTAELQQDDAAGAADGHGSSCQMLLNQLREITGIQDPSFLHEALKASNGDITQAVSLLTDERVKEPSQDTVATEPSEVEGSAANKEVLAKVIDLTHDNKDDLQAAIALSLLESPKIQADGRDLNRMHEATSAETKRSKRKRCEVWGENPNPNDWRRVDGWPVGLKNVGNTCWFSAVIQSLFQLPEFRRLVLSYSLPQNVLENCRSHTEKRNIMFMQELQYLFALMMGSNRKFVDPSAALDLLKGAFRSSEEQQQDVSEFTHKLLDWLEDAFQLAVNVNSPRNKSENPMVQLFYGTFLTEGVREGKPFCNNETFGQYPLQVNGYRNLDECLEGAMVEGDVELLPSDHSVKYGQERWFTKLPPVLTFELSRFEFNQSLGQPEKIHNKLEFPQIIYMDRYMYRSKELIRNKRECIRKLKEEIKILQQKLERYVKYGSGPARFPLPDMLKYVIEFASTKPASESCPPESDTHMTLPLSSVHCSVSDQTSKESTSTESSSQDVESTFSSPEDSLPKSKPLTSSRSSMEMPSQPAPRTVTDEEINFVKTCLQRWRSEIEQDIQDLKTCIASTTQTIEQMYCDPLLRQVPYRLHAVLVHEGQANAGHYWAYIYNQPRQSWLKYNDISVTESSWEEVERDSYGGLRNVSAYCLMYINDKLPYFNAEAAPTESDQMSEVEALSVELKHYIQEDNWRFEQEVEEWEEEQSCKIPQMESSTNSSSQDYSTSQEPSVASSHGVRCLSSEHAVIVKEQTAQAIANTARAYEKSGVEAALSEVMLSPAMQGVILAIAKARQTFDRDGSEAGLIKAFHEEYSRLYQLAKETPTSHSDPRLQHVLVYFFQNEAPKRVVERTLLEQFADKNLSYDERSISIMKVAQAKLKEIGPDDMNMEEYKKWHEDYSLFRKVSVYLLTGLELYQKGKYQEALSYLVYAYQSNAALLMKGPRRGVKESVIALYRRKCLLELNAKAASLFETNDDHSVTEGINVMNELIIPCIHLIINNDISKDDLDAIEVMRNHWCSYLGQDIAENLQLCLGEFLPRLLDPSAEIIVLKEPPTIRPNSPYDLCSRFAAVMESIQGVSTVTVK

Consider `CC(=O)c1ccc(Cc2ncc(C(F)(F)F)cc2Cl)s1`, for which the IC50 (usually the concentration that inhibits the measured activity by half) is 6.83 µM.
The result for `NC(=O)Cn1c(=O)n(Cc2ccc(C(=O)NC3CCCC3)cc2)c(=O)c2ccccc21` reads > 50 µM (inactive); that for `Cc1ccc(NC(=O)c2cnc(N3CCOCC3)nc2)cc1F`, 33.3 µM.
The result for `N#Cc1ccccc1OCc1csc(-c2ccccc2)n1` reads 5.97 µM; that for `O=C(NC(Cc1ccccc1)c1nc2ccccc2[nH]1)C1CC1` (centres undefined), > 50 µM (inactive); that for `CNC(=O)c1cc2nc(N(C)C)n(-c3ccccc3)c2s1`, 27.1 µM.
On to `Cc1sc(NC(=O)CN2CCc3ccccc3C2)nc1-c1ccc2c(c1)CCN2C(=O)C1CCCCC1`, for which the IC50 was > 50 µM (inactive).
The value for `COc1cccc(NC(=O)c2ccc(-c3csc(C)n3)cc2)c1` was 6.69 µM; that for `COc1ccc(-n2nnc(C(=O)Nc3ccccc3)c2N)cc1` was > 50 µM (inactive).
The result for `Cc1c(C)n(-c2ccccc2)c2ncn(CC(=O)NC(C)c3ccccc3)c(=O)c12` (centres undefined) reads 16.7 µM.
The value for `CCCCc1nc2sc3c(SCC(=O)Nc4cccc(C)c4)ncnc3c2c2c1CCC2` was 14 µM.
`CCCC1Cc2c(sc3nc(SCC)nc(N)c23)CO1` (centres undefined): the IC50 was 16.4 µM.
For `O=C(CCc1c[nH]c2ccccc12)Nc1ccc(N2CCOCC2)cc1`, the IC50 is 24.9 µM.
The result for `CC1(C)OC2=C(C(=O)c3cc(O)cc(O)c3C2=O)c2cc(CO)c(O)cc21` reads 18.5 µM; that for `Cc1cccc(C)c1NC(=O)Cn1c(=O)n(CCCCC(=O)NCc2ccc3c(c2)OCO3)c(=O)c2ccccc21`, 1.88 µM; that for `Cc1nn(CC(=O)NCc2ccccc2F)c2ccccc12`, > 50 µM (inactive).
For `COc1ccc(NC(=O)C2CCN(c3cncnc3N(C)C)CC2)cc1OC`, the IC50 is 6.74 µM.
The value for `COc1ccccc1C(=O)NCC(c1ccc2c(c1)CCCN2C)N1CCCC1` (centres undefined) was > 50 µM (inactive); that for `Cc1cc(C)c2sc(N(CCCn3ccnc3)C(=O)Cc3ccccc3)nc2c1` was 17.2 µM.
The result for `COc1ccc(-c2nc(SCC(=O)Nc3ccc(C(C)=O)cc3)n[nH]2)cc1` reads 15.5 µM; that for `Cc1ccc(-c2nc(NC(=O)Nc3ccc(Cl)cc3)sc2C)cc1`, 32.9 µM.
The result for `CCOc1cccc(NC(=O)c2ccc(S(=O)(=O)N3CCc4ccccc4C3)cc2)c1` reads 44.3 µM; that for `O=C1N(Cc2cccc(Cl)c2)CCN1c1ccc2c(c1)CCC2`, 18.2 µM; that for `Cc1cc(N2CCN(c3ncccn3)CC2)nc2ccc(NC(=O)/C=C/c3ccccc3Cl)cc12`, 7.79 µM.
Consider `CC(=O)c1ccc(NC(=O)c2nc3ccccc3nc2N2CCOCC2)cc1`, for which the IC50 is > 50 µM (inactive).
Take `COc1ccc(-c2nc(-c3nnn(Cc4ccc(F)cc4)c3C)no2)c(OC)c1`: the IC50 is 5.4 µM.
The result for `CC1CCc2sc(NC(=O)c3ccccc3Oc3ccccc3)c(C(N)=O)c2C1` (centres undefined) reads 15.2 µM; that for `CCN(CCCNC(=O)c1ccc(Cn2c(=O)[nH]c3ccccc3c2=O)cc1)c1ccccc1`, 13.6 µM.
The result for `CCC/C=C\C#CC/C=C\CCCCCCCC(=O)O` reads 1.09 µM; that for `Cc1ccc(CNC(=O)c2cnc3ccccc3n2)cc1`, > 50 µM (inactive); that for `COc1ccccc1CNC(=O)CCCn1c(=O)c2ccccc2n(CC(=O)N2CCN(c3ccccc3)CC2)c1=O`, 28.8 µM.
Consider `Cc1cc(C)c2cc3c(nc2c1)OC(=O)N(Cc1ccco1)C3`, for which the IC50 was 9.77 µM.
On to `O=C(c1ccco1)N1CCCC2(C1)Nc1cccnc1NC2=NC1CCCC1` (centres undefined), for which the IC50 is > 50 µM (inactive).
Turning to `COc1ccc(-c2ocnc2C(=O)NCc2ccc(F)cc2)cc1`, the IC50 was 8.2 µM.
`CCc1c(C)c(C#N)c2nc3ccccc3n2c1N1CCN(C2CCCC2)CC1`: the IC50 was 12.3 µM.
Take `CC(=O)Nc1ccc([C@H]2OCC(=O)N(C3CCOCC3)[C@@H]2CO)cc1`: the IC50 was > 50 µM (inactive).
The result for `O=C(c1cc2ccccc2o1)N1CC=C(c2ccccc2)CC1` reads > 50 µM (inactive); that for `CCOc1ccc(NC(=O)Cn2cc(C(=O)c3ccc(Cl)cc3)c(=O)c3cc(OC)ccc32)cc1`, 4.32 µM; that for `CCOc1ccc2[nH]c(=O)c(CN(C(=O)c3cccs3)C3CCCC3)cc2c1`, 14.1 µM.
The value for `Cc1nc(-c2ccc3c(c2)nnn3CCN2CCOCC2)no1` was > 50 µM (inactive); that for `CC(OC(=O)c1cn(-c2ccccc2)nc1-c1cccnc1)C(=O)Nc1cccc(S(=O)(=O)N(C)C)c1` (centres undefined) was 30.9 µM.
Turning to `O=C(Nc1ccccc1Br)c1ccn(COc2ccccc2F)n1`, the IC50 was 18 µM.
The result for `COc1ccc(O)c(C(=O)OCc2cc(=O)oc3ccc4ccccc4c23)c1` reads > 50 µM (inactive); that for `Cc1ccc2nc(N3CCc4ccccc4C3)c3nncn3c2c1`, > 50 µM (inactive); that for `Fc1cccc(Cn2cc(-c3noc(-c4cccnc4)n3)nn2)c1`, 29.1 µM.
Take `CC1CCCN1C(=O)c1ccn(-c2ccc3ccc(-c4cccnc4)cn23)n1` (centres undefined): the IC50 is > 50 µM (inactive).
The result for `Cc1ccc(-n2nnc(C(=O)NC3CCCCC3)c2N)cc1` reads 27.2 µM; that for `Cc1ccc2[nH]c(=O)c(-c3nc4ccc(C)cn4c3NCc3ccc(F)cc3)cc2c1`, 1.93 µM; that for `NC(=O)C1(N2CCCCC2)CCN(C(=O)c2[nH]nc3c2CCc2ccccc2-3)CC1`, > 50 µM (inactive).
The result for `Cc1cccc(COc2ccc(C3SCC(=O)Nc4n[nH]c(C)c43)cc2)c1` (centres undefined) reads 5.31 µM; that for `CCn1cc(NC(=O)CN2CCC3(CC=CCOC3)CC2)c(C)n1`, > 50 µM (inactive).
The value for `COc1cc(Cn2cnc3c([nH]c4ccc(Br)cc43)c2=O)cc(OC)c1` was 2.76 µM; that for `CC1(O)CC(=O)c2c(cc3cc(O)cc(O)c3c2O)C1` (centres undefined) was 0.0671 µM; that for `COc1ccc(COc2ccc3c(C)c(CC(=O)N4CC[C@@]5(O)CCCC[C@H]5C4)c(=O)oc3c2)cc1` was 2.27 µM.
Turning to `Cc1nnc(Sc2cc(C(=O)NCCN3CCCC3)c3ccccc3n2)s1`, the IC50 was > 50 µM (inactive).
The result for `CCn1ccc2c(cc(C(=O)Nc3cc(F)ccc3F)n2C)c1=O` reads 2.22 µM.
The value for `O=C(CCc1nnc2n(Cc3ccccc3Cl)c(=O)c3ccccc3n12)NCc1ccccn1` was 23.4 µM.
The result for `Cc1c(C)n(-c2ccccc2)c2ncn(CC(=O)N(C)Cc3ccccc3)c(=O)c12` reads > 50 µM (inactive); that for `Nc1nonc1C(=O)NCCNCc1cccc(OCc2ccc(Cl)cc2)c1`, 32.6 µM.
In the case of `NC(=O)c1nc(-c2ccccn2)nc2c1[nH]c(=O)n2-c1ccc2c(c1)OCO2`, the IC50 is 6.72 µM.
The result for `CCc1ccc2c(c1)[C@]1(C(=O)N2)[C@@H]2C(=O)N(c3ccc(Cl)cc3Cl)C(=O)[C@@H]2[C@@H]2CCCN21` reads > 50 µM (inactive).
The result for `CC1(C)Cc2c(sc3nc(Cc4ccccc4)nc(SCC(=O)Nc4ccccc4)c23)CO1` reads 2.4 µM; that for `CCc1ccccc1NC(=O)COc1ccccc1-c1nnc(-c2ccccc2)o1`, 23.5 µM.
As for `Cn1nc(-c2nc(-c3ccccc3)no2)c2c1CCN(C(=O)C1CCCC1)C2`, the IC50 was 24.1 µM.
With `CN(C)c1ccc(CCN2CCc3nc4cccnc4cc3C2)cc1`, the IC50 is > 50 µM (inactive).
The result for `NC(=O)CCC(=O)N[C@H]1C[C@H]2CN(Cc3ccccc3)c3ccccc3CN2C1` reads > 50 µM (inactive).
The result for `CC(=O)Nc1cc2cc(-n3cccc3)ccc2oc1=O` reads 24.9 µM; that for `COc1cccc(NC(=O)C2CCN(C(=O)c3cc(-c4cccnc4)n[nH]3)CC2)c1`, 20.3 µM.
The value for `CC1CC[C@]2(NC1)O[C@H]1C[C@H]3[C@@H]4CC[C@H]5C[C@@H](O[C@@H]6O[C@H](CO)[C@H](O[C@@H]7O[C@H](CO)[C@@H](O)[C@H](O[C@@H]8OC[C@@H](O)[C@H](O)[C@H]8O)[C@H]7O[C@@H]7O[C@H](CO)[C@@H](O)[C@H](O)[C@H]7O)[C@H](O)[C@H]6O)CC[C@]5(C)[C@H]4CC[C@]3(C)[C@H]1[C@@H]2C` (some centres undefined) was 30.5 µM; that for `O=C(CCc1ccc(S(=O)(=O)N2CCOCC2)cc1)Nc1ccc2c(c1)OCCO2` was 13.1 µM.
Turning to `COc1cc(C#N)c(NC(=NCc2ccc(F)cc2)SC)cc1OC`, the IC50 was 22.5 µM.
The value for `COC(=O)c1ccc(Cn2cnc3ccc(Br)cc3c2=O)o1` was 2.07 µM; that for `COc1ccccc1CC(=O)Nc1nc2ccccc2[nH]1` was 37.1 µM.
The value for `O=C(Nc1ccc2c(c1)N(C(=O)C1CCCC1)CC2)c1c(F)cccc1F` was 0.15 µM.
The result for `COc1cccc(CNC(=O)C2=Cc3cccc(OC)c3OC2)c1` reads 8.65 µM; that for `Cc1cnc2nc3c(cc2c1)CN(CCc1ccc(Cl)cc1)CC3`, > 50 µM (inactive).
In the case of `Cc1nn(Cc2ccccc2)c(C)c1C(=O)NC1CCCc2ccccc21` (centres undefined), the IC50 was 5.14 µM.
For `COCCN(C1CCN(CCc2ccc(Cl)cc2)CC1)S(=O)(=O)c1cccc2cccnc12`, the IC50 was > 50 µM (inactive).
The value for `CCN(CC)C(=O)CN1CCCC(c2ncncc2-c2cc(C)no2)C1` (centres undefined) was > 50 µM (inactive).
For `CCCC[C@@H](C)/C=C(C)/C=C(\C)C(=O)NC1=C[C@](O)(/C=C/C=C/C=C/C(=O)NC2=C(O)CCC2=O)[C@@H]2O[C@@H]2C1=O`, the IC50 is 2.56 µM.
The value for `Cc1ccc(NC(=O)Cn2c(-n3nc(C)cc3C)nc3c(c2=O)CCCC3)c(C)c1` was 35.8 µM.
The result for `O=C1CC(C(=O)Nc2ccccc2F)n2nc(-c3ccccc3)cc2N1` (centres undefined) reads 21.9 µM.
The result for `O=C(CNS(=O)(=O)c1ccc(F)cc1)N1CCCC(c2nnc3ccccn23)C1` (centres undefined) reads 24.4 µM; that for `CCCCc1ccc(-c2cc(C(=O)NCCN3CCOCC3)c3cc(Br)ccc3n2)cc1`, 14.9 µM; that for `O=C(CSc1ncnc2c1oc1ccccc12)NC1CCCC1`, 20.5 µM.
Regarding `Nc1c(-c2ccc(Cl)cc2)cnc2cc(-c3ccc(Cl)c(Cl)c3)nn12`, the IC50 was 3.28 µM.
The result for `CS(=O)(=O)N1CCc2cc(C(=O)Nc3ccc(Cc4ccncc4)cc3)ccc21` reads 8.75 µM; that for `Cc1cc(C)cc(-n2cnc3cc(C(=O)NCCC4=CCCCC4)ccc32)c1`, 2.01 µM.
The result for `Cc1ccc(NC(=O)Cn2c(Nc3cccc(C)c3)nc(C)cc2=O)cc1` reads 25.4 µM.

These data come from PubChem BioAssay AID1645866 (Buhrlage Lab, Dana-Farber Cancer Institute and Novartis …, 2021).
